Measured values reported in patent publication US20250136606A1, “MODULATORS OF TRPML, THEIR COMPOSITIONS AND METHODS OF USE” (Caraway Therapeutics, Inc., priority 2021, published 2025).

Legend:
Assay type in all cases: cell-based
Details in all cases: fluorescent calcium assay
TRPML1 = TRPML1 (Homo sapiens, UniProt Q9GZU1); experiment: Fluorescent TRPML1 assay (Fluo4-AM calcium fluorescence in doxycycline-induced HEK-293 Trex cells)
Procedure, shortened: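 First, expression of surface-targeted mutant human TRPML1 is induced in HEK-293 Trex cells with 0.5 ug/mL doxycycline the day before. Next, cells take up 1 micromolar Fluo4-AM in Ringer's with 0.1% Pluronic. Finally, they are added to compounds (6 nanomolar–20 micromolar final) in 10 mM calcium Ringer's and fluorescence is read.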

TRPML2 = target: T1, TRPML2 (Homo sapiens, UniProt Q8IZK6); experiment: Fluorescent TRPML2 assay (performed as for TRPML1, substituting the TRPML2 subtype)
T1 construct: expressed in transfected cells
T1 sequence (Q8IZK6 1-566): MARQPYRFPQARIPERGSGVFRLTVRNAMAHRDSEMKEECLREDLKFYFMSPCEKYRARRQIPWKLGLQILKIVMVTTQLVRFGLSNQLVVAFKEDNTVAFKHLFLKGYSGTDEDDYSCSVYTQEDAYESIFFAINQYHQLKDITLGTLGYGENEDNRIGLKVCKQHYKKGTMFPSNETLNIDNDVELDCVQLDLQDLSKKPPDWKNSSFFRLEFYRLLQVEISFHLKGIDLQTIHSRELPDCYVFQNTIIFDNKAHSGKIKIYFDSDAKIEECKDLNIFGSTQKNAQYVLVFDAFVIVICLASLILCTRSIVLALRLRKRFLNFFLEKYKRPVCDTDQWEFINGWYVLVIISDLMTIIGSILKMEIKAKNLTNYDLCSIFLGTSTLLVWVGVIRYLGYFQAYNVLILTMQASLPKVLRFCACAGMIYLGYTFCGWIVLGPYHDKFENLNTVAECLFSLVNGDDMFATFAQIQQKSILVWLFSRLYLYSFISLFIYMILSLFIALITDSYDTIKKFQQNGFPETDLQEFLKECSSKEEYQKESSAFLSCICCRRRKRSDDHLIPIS
Procedure, shortened: (§1)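 Calcium-influx readout: Fluo4 fluorescence at 480/540 nm, normalised to positive and negative controls per plate, EC50 fitted by non-linear regression. Cells were HEK-293 Trex stable lines, channel expression induced overnight with 0.5 ug/mL doxycycline; tested at 20 micromolar down to 6 nanomolar final, half-log steps, triplicate.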

TRPML3 = target: T2, TRPML3 (Homo sapiens, UniProt Q8TDD5); experiment: Fluorescent TRPML3 assay (performed as for TRPML1, substituting the TRPML3 subtype)
T2 construct: expressed in transfected cells
T2 sequence (Q8TDD5 1-553): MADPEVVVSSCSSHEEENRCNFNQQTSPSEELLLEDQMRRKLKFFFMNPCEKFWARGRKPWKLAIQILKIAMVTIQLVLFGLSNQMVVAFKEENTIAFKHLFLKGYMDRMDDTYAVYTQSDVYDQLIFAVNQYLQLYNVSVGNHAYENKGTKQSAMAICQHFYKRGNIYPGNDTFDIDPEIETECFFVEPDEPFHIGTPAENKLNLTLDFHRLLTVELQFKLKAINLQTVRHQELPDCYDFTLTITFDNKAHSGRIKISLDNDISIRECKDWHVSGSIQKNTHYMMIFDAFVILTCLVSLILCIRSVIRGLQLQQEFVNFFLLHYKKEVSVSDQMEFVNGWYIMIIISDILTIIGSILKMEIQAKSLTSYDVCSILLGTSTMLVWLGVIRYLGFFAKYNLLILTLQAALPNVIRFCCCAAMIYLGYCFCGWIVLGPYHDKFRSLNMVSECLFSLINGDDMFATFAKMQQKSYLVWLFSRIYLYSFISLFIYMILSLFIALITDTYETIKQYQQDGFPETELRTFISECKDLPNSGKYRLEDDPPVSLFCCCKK
Procedure, shortened: as §1

Chain of TRPML1 (Q9GZU1 whole entry L15A/L16A/L577A/L578A, form open): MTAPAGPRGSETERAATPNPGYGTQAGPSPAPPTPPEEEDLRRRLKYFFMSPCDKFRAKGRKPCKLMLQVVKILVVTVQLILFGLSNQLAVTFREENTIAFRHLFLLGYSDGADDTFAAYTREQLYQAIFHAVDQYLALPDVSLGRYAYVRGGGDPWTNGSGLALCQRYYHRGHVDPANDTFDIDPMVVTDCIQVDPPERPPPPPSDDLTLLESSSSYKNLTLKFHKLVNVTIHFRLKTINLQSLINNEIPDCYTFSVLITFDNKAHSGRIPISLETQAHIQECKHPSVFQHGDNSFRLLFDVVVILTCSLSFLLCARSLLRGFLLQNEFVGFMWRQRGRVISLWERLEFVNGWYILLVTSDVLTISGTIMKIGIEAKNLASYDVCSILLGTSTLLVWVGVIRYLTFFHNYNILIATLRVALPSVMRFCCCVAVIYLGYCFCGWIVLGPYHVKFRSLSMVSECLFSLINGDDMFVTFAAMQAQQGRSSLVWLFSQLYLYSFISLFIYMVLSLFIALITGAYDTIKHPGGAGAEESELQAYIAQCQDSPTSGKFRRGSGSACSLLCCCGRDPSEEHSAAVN

Compound	EC50 (TRPML1)	EC50 (TRPML2)	EC50 (TRPML3)
C[C@@H]1CN(c2ncnc3c2c(-c2ccccn2)cn3-c2cc(C#N)ccn2)CCN1C(=O)OC(C)(C)C [Compound 367, tert-butyl (R)-4-(7-(4-cyanopyridin-2-yl)-5-(pyridin-2-yl)-7H-pyrrolo[2,3-d]pyrimidin-4-yl)-2-methylpiperazine-1-carboxylate]	< 100 nM	100 to 500 nM	< 100 nM
C[C@H]1CN(C(=O)OCC(F)(F)F)CCN1c1ncnc2c1c(C1CC1)cn2-c1cc(C#N)ccn1 [Compound 368, 2,2,2-trifluoroethyl (S)-4-(7-(4-cyanopyridin-2-yl)-5-cyclopropyl-7H-pyrrolo[2,3-d]pyrimidin-4-yl)-3-methylpiperazine-1-carboxylate]	< 100 nM	500 to 2000 nM	< 100 nM
C[C@@H]1COCCN1c1cn(-c2cccc(C#N)c2)c2ncnc(N3CCN(C(=O)OC(C)(C)C)C[C@@H]3C)c12 [Compound 369, tert-butyl (S)-4-(7-(3-cyanophenyl)-5-((R)-3-methylmorpholino)-7H-pyrrolo[2,3-d]pyrimidin-4-yl)-3-methylpiperazine-1-carboxylate]	100 to 500 nM	500 to 2000 nM	100 to 500 nM
C[C@H]1CN(C(=O)OC(C)(C)C)CCN1c1ncnc2c1c(N1CCCC1)cn2-c1cc(C#N)ccn1 [Compound 370, tert-butyl (S)-4-(7-(4-cyanopyridin-2-yl)-5-(pyrrolidin-1-yl)-7H-pyrrolo[2,3-d]pyrimidin-4-yl)-3-methylpiperazine-1-carboxylate]	< 100 nM	100 to 500 nM	< 100 nM
C[C@H]1CN(C(=O)OCC(F)(F)F)CCN1c1ncnc2c1c(-c1ccccc1)cn2-c1cc(C#N)ccn1 [Compound 371, 2,2,2-trifluoroethyl (S)-4-(7-(4-cyanopyridin-2-yl)-5-phenyl-7H-pyrrolo[2,3-d]pyrimidin-4-yl)-3-methylpiperazine-1-carboxylate]	< 100 nM	500 to 2000 nM	< 100 nM
Cc1c(F)cc(-n2cc(N3CCCC3)c3c(N4CCN(C(=O)OC(C)(C)C)C[C@@H]4C)ncnc32)cc1F [Compound 374, tert-butyl (S)-4-(7-(3,5-difluoro-4-methylphenyl)-5-(pyrrolidin-1-yl)-7H-pyrrolo[2,3-d]pyrimidin-4-yl)-3-methylpiperazine-1-carboxylate]	100 to 500 nM	500 to 2000 nM	< 100 nM
CCN(CC)c1cn(-c2cccc(Cl)c2)c2ncnc(N3CCN(C(=O)OC(C)(C)C)[C@H](C)C3)c12 [Compound 375, tert-butyl (R)-4-(7-(3-chlorophenyl)-5-(diethylamino)-7H-pyrrolo[2,3-d]pyrimidin-4-yl)-2-methylpiperazine-1-carboxylate]	< 100 nM	100 to 500 nM	< 100 nM
C[C@H]1CN(C(=O)OC(C)(C)C)CCN1c1ncnc2c1c(C1CC1(F)F)cn2-c1cccc(C#N)c1 (stereo partly drawn) [Compound 376]	< 100 nM	100 to 500 nM	< 100 nM
C[C@@H]1CN(c2ncnc3c2c(C2CC2)cn3-c2cc(C#N)ccn2)CCN1C(=O)OCC(F)(F)F [Compound 377, 2,2,2-trifluoroethyl (R)-4-(7-(4-cyanopyridin-2-yl)-5-cyclopropyl-7H-pyrrolo[2,3-d]pyrimidin-4-yl)-2-methylpiperazine-1-carboxylate]	< 100 nM	100 to 500 nM	< 100 nM
C[C@@H]1CN(c2ncnc3c2c(-c2ccccc2F)cn3-c2cc(C#N)ccn2)CCN1C(=O)OCC(F)(F)F [Compound 378, 2,2,2-trifluoroethyl (R)-4-(7-(4-cyanopyridin-2-yl)-5-(2-fluorophenyl)-7H-pyrrolo[2,3-d]pyrimidin-4-yl)-2-methylpiperazine-1-carboxylate]	< 100 nM	< 100 nM	< 100 nM
C[C@H]1COCCN1c1cn(-c2cccc(C#N)c2)c2ncnc(N3CCN(C(=O)OC(C)(C)C)C[C@@H]3C)c12 [Compound 379, tert-butyl (S)-4-(7-(3-cyanophenyl)-5-((S)-3-methylmorpholino)-7H-pyrrolo[2,3-d]pyrimidin-4-yl)-3-methylpiperazine-1-carboxylate]	500 to 2000 nM	> 2000 nM	500 to 2000 nM

The next lines start with the values.

EC50 (TRPML1)	EC50 (TRPML2)	EC50 (TRPML3)	Compound
> 2000 nM	> 2000 nM	> 2000 nM	C[C@H]1CN(C(=O)OC(C)(C)C)CCN1c1ncnc2c1c(N1CCN(C)CC1)cn2-c1cc(C#N)ccn1 [Compound 381, tert-butyl (S)-4-(7-(4-cyanopyridin-2-yl)-5-(4-methylpiperazin-1-yl)-7H-pyrrolo[2,3-d]pyrimidin-4-yl)-3-methylpiperazine-1-carboxylate]
< 100 nM	100 to 500 nM	< 100 nM	C[C@@H]1CN(c2ncnc3c2c(C2CC2)cn3-c2cc(C#N)ccn2)CCN1C(=O)OC(C)(C)C [Compound 384, tert-butyl (R)-4-(7-(4-cyanopyridin-2-yl)-5-cyclopropyl-7H-pyrrolo[2,3-d]pyrimidin-4-yl)-2-methylpiperazine-1-carboxylate]
500 to 2000 nM	100 to 500 nM	< 100 nM	C[C@H]1CN(C(=O)OC(C)(C)C)CCN1c1ncnc2c1c(C1CC1)cn2-c1ccc(F)c(OC(F)(F)F)c1 [Compound 387, tert-butyl (S)-4-(5-cyclopropyl-7-(4-fluoro-3-(trifluoromethoxy)phenyl)-7H-pyrrolo[2,3-d]pyrimidin-4-yl)-3-methylpiperazine-1-carboxylate]
< 100 nM	< 100 nM	< 100 nM	C[C@@H]1CN(c2ncnc3c2c(N2CCC2)cn3-c2cc(C#N)ccn2)CCN1C(=O)OC(C)(C)C [Compound 388, tert-butyl (R)-4-(5-(azetidin-1-yl)-7-(4-cyanopyridin-2-yl)-7H-pyrrolo[2,3-d]pyrimidin-4-yl)-2-methylpiperazine-1-carboxylate]
500 to 2000 nM	100 to 500 nM	< 100 nM	C[C@@H]1CN(C(=O)OC(C)(C)C)CCN1c1ncnc2c1c(-c1ccccc1F)cn2-c1cc(C#N)ccn1 [Compound 389, tert-butyl (R)-4-(7-(4-cyanopyridin-2-yl)-5-(2-fluorophenyl)-7H-pyrrolo[2,3-d]pyrimidin-4-yl)-3-methylpiperazine-1-carboxylate]
< 100 nM	< 100 nM	< 100 nM	C[C@@H]1CN(c2ncnc3c2c(-c2ccccc2F)cn3-c2cc(C#N)ccn2)[C@@H](C)CN1C(=O)OC(C)(C)C [Compound 390]
< 100 nM	100 to 500 nM	< 100 nM	CC(C)(C)OC(=O)N1CCN(c2ncnc3c2c(-c2ccccc2F)cn3-c2cc(C#N)ccn2)CC1(C)C [Compound 391]
< 100 nM	100 to 500 nM	100 to 500 nM	C[C@H]1CN(C(=O)OC(C)(C)C)CCN1c1ncnc2c1c(C1CC1)cn2C1CCC1 [Compound 398, tert-butyl (S)-4-(7-cyclobutyl-5-cyclopropyl-7H-pyrrolo[2,3-d]pyrimidin-4-yl)-3-methylpiperazine-1-carboxylate]
100 to 500 nM	500 to 2000 nM	< 100 nM	C[C@H]1CN(C(=O)OC(C)(C)C)CCN1c1ncnc2c1c(N1CCCC1)cn2-c1cc(Cl)cc(C#N)c1 [Compound 399, tert-butyl (S)-4-(7-(3-chloro-5-cyanophenyl)-5-(pyrrolidin-1-yl)-7H-pyrrolo[2,3-d]pyrimidin-4-yl)-3-methylpiperazine-1-carboxylate]
